Consider 16 compounds from ChEMBL document CHEMBL1909046, “DrugMatrix in vitro pharmacology data”.

A short description of test [1]: DRUGMATRIX: Potassium Channel [KATP] radioligand binding (ligand: [3H] Glyburide). The test is classed as cell membranes, Membrane. The settings on record: hit-t15; Not Active = under 50% inhibition at 10 µM.
Test [2] deals with Beta-3 adrenergic receptor (Homo sapiens, UniProt P13945). Description: DRUGMATRIX: Adrenergic beta3 radioligand binding (ligand: [125I] Cyanopindolol). The test is classed as cell membranes, HEK293, Membrane. The settings on record: hek293; Not Active = under 50% inhibition at 10 µM.
Test [3] addresses cGMP-specific 3',5'-cyclic phosphodiesterase (Homo sapiens, UniProt O76074). Put plainly: DRUGMATRIX: Phosphodiesterase PDE5 enzyme inhibition (substrate: [3H]cGMP + cGMP). Type of test: tissue-based, Platelet. The settings on record: platelet; Not Active = under 50% inhibition at 10 µM.
Test [4] is described as follows: DRUGMATRIX: GABAA, Chloride Channel, TBOB radioligand binding (ligand: [3H] TBOB). Type of test: cell membranes, Rattus norvegicus, Wistar, Cerebral cortex, Membrane. The settings on record: Not Active = under 50% inhibition at 10 µM.
The target in test [5] is Melanocortin receptor 5 (Homo sapiens, UniProt P33032). The test is classed as cell membranes, HEK293, Membrane. Further: in other assays of this panel Not Active means under 50% inhibition at 10 µM.
Test [6] has as its target Tyrosine-protein kinase Lck (Homo sapiens, UniProt P06239). Put plainly: DRUGMATRIX: Protein Tyrosine Kinase, LCK enzyme inhibition (substrate: Poly(Glu:Tyr)). The test is classed as cell-based, Insect cells. The settings on record: insect cells; Not Active = under 50% inhibition at 10 µM.

Beta-3 adrenergic receptor, sequence (P13945 whole entry): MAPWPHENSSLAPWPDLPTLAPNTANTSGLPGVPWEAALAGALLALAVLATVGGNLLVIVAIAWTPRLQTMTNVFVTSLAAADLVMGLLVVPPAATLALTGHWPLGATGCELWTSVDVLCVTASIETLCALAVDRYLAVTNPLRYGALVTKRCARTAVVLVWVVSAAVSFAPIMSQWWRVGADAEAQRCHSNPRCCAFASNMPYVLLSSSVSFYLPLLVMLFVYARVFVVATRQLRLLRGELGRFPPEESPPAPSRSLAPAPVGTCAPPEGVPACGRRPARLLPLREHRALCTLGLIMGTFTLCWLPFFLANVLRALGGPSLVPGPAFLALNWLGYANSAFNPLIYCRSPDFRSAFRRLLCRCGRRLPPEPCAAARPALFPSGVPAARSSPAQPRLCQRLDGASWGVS
Melanocortin receptor 5, sequence (P33032 whole entry): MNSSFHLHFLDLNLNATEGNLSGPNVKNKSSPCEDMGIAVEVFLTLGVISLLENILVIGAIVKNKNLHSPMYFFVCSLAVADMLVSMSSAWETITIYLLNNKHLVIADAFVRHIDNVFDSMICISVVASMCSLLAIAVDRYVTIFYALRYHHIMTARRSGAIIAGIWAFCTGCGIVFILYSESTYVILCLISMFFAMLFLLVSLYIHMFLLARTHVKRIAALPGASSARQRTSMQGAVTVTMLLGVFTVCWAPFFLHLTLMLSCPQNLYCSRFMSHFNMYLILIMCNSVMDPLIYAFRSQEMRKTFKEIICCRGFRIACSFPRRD
Tyrosine-protein kinase Lck, sequence (P06239 whole entry): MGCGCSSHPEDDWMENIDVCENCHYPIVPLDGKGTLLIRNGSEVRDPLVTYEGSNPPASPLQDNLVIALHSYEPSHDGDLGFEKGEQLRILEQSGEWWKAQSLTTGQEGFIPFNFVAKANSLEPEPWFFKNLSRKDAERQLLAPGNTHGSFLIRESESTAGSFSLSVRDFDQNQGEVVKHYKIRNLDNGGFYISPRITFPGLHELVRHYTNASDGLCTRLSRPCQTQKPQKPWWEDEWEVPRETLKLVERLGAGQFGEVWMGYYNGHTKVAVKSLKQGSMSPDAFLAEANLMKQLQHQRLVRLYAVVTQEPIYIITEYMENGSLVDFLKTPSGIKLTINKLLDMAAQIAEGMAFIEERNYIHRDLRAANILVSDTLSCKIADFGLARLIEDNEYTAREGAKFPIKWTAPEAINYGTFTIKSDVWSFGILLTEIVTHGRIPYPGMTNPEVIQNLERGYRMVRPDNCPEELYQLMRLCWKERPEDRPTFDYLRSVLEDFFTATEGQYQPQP

In general, IC50 refers to the concentration at which inhibition is half-maximal. Usually Ki stands for a measure of affinity in units of concentration, obtained from inhibition or displacement. For the compound `Oc1ncnc2[nH]ncc12` [ALLOPURINOL], the IC50 result in test [1], in test [2], in test [3], in test [4], in test [5] (hek293) and in test [6] was “Not Active” throughout. The Ki entry in test [1] and in test [4] was “Not Active” each time.
As for `C=CCO` [ALLYL ALCOHOL], the half-maximal inhibitory concentration (IC50) entry in test [1], in test [2], in test [3], in test [4], in test [5] (hek293) and in test [6] was “Not Active” throughout. The Ki result in test [1] and in test [4] was “Not Active” throughout.
As for `Nc1nc(N)c2nc(CNc3ccc(C(=O)N[C@@H](CCC(=O)O)C(=O)O)cc3)cnc2n1` [AMINOPTERIN], the half-inhibitory concentration (IC50) entry in test [1], in test [2], in test [3], in test [4], in test [5] (hek293) and in test [6] was “Not Active” each time. Further, the Ki result in test [1] and in test [4] was “Not Active” throughout.
Regarding `Nc1ccc(C(=O)O)c(O)c1` [AMINOSALICYLIC ACID], the IC50 result in test [1], in test [2], in test [3], in test [4], in test [5] (hek293) and in test [6] was “Not Active” each time. The inhibition constant (Ki) result in test [1] and in test [4] was “Not Active” throughout.
Regarding `C[C@@H]1[C@H](O)[C@@H](C)/C=C/C=C/C=C/C=C/C=C/C=C/C=C/[C@H](O[C@@H]2O[C@H](C)[C@@H](O)[C@H](N)[C@@H]2O)C[C@@H]2O[C@](O)(C[C@@H](O)C[C@@H](O)[C@H](O)CC[C@@H](O)C[C@@H](O)CC(=O)O[C@H]1C)C[C@H](O)[C@H]2C(=O)O` [AMPHOTERICIN B], the IC50 entry in test [1], in test [2], in test [3], in test [4], in test [5] (hek293) and in test [6] was “Not Active” throughout. Also, the inhibitory constant (Ki) entry in test [1] and in test [4] was “Not Active” in each case.
As for `CC(C)(C#N)c1cc(Cn2cncn2)cc(C(C)(C)C#N)c1` [ANASTROZOLE], the half-inhibitory concentration (IC50) result in test [1], in test [2], in test [3], in test [4], in test [5] (hek293) and in test [6] was “Not Active” throughout. For the same compound, the Ki entry in test [1] and in test [4] was “Not Active” each time.
In the case of `C[C@]12CC[C@@H](O)C[C@@H]1CC[C@@H]1[C@@H]2CC[C@]2(C)C(=O)CC[C@@H]12` [ANDROSTERONE], the IC50 entry in test [1], in test [2], in test [3], in test [4], in test [5] (hek293) and in test [6] was “Not Active” in each case. Also, the Ki result in test [1] and in test [4] was “Not Active” each time.
`CC(C)NCC(O)COc1ccc(CC(N)=O)cc1` (centres undefined) [ATENOLOL]: the 50% inhibitory concentration (IC50) entry in test [1], in test [2], in test [3], in test [4], in test [5] (hek293) and in test [6] was “Not Active” each time. For the same compound, the inhibition constant Ki entry in test [1] and in test [4] was “Not Active” throughout.
Regarding `NCC(CC(=O)O)c1ccc(Cl)cc1` (centres undefined) [BACLOFEN], the concentration for half-maximal inhibition (IC50) entry in test [1], in test [2], in test [3], in test [4], in test [5] (hek293) and in test [6] was “Not Active” each time. The Ki entry in test [1] and in test [4] was “Not Active” throughout.
For the compound `O=C(O)c1ccccc1` [BENZOIC ACID], the half-inhibitory concentration (IC50) entry in test [1], in test [2], in test [3], in test [4], in test [5] (hek293) and in test [6] was “Not Active” throughout. The Ki entry in test [1] and in test [4] was “Not Active” each time.
On to `c1ccc2sc(SSc3nc4ccccc4s3)nc2c1` [BENZOTHIAZYL DISULFIDE], for which the IC50 entry in test [1] is “Not Active”; in test [2], “Not Active”; in test [3], “Not Active”; in test [4], “Not Active”; in test [5] (read-out: IC50) it was 3.9 µM; in test [6] it was “Not Active”. Besides, the inhibition constant Ki entry in test [1] was “Not Active”; in test [4] it was “Not Active”; in test [5] (read-out: Ki), 3.7 µM.
For `OC[C@H]1O[C@@H]2O[C@H]3[C@H](O)[C@@H](O)[C@@H](O[C@H]4[C@H](O)[C@@H](O)[C@@H](O[C@H]5[C@H](O)[C@@H](O)[C@@H](O[C@H]6[C@H](O)[C@@H](O)[C@@H](O[C@H]7[C@H](O)[C@@H](O)[C@@H](O[C@H]8[C@H](O)[C@@H](O)[C@@H](O[C@H]1[C@H](O)[C@H]2O)O[C@@H]8CO)O[C@@H]7CO)O[C@@H]6CO)O[C@@H]5CO)O[C@@H]4CO)O[C@@H]3CO` [BETADEX], the 50% inhibitory concentration (IC50) entry in test [1], in test [2], in test [3], in test [4], in test [5] (hek293) and in test [6] was “Not Active” each time. Further, the Ki result in test [1] and in test [4] was “Not Active” throughout.
`C[C@H]1C[C@H]2[C@@H]3CCC4=CC(=O)C=C[C@]4(C)[C@@]3(F)[C@@H](O)C[C@]2(C)[C@@]1(O)C(=O)CO` [BETAMETHASONE]: the IC50 result in test [1], in test [2], in test [3], in test [4], in test [5] (hek293) and in test [6] was “Not Active” in each case. Besides, the Ki entry in test [1] and in test [4] was “Not Active” each time.
Turning to `CC(C)(c1ccc(O)cc1)c1ccc(O)cc1` [BISPHENOL A], the IC50 entry in test [1], in test [2], in test [3], in test [4], in test [5] (hek293) and in test [6] was “Not Active” in each case. The Ki entry in test [1] and in test [4] was “Not Active” in each case.
For the compound `Cc1c(N)nc([C@H](CC(N)=O)NC[C@H](N)C(N)=O)nc1C(=O)N[C@H](C(=O)N[C@H](C)[C@@H](O)[C@H](C)C(=O)N[C@H](C(=O)NCCc1nc(-c2nc(C(=O)NCCC[S+](C)C)cs2)cs1)[C@@H](C)O)[C@@H](O[C@@H]1O[C@@H](CO)[C@@H](O)[C@H](O)[C@@H]1O[C@H]1O[C@H](CO)[C@@H](O)[C@H](OC(N)=O)[C@@H]1O)c1c[nH]cn1.[Br-]` [BLEOMYCIN A2], the IC50 result in test [1], in test [2], in test [3], in test [4], in test [5] (hek293) and in test [6] was “Not Active” throughout. Besides, the inhibition constant (Ki) entry in test [1] and in test [4] was “Not Active” throughout.
Consider `CN(Cc1cc(Br)cc(Br)c1N)C1CCCCC1` [BROMHEXINE], for which the IC50 result in test [1], in test [2], in test [3], in test [4], in test [5] (hek293) and in test [6] was “Not Active” in each case. Moreover, the Ki result in test [1] and in test [4] was “Not Active” throughout.
